Measured values published in ChEMBL document CHEMBL1125373, “Systemic analgesic activity and delta-opioid selectivity in [2,6-dimethyl-Tyr1,D-Pen2,D-Pen5]enkephalin” (J Med Chem, 1992).

Assays:
Assay type in all cases: functional
[1] = tested on: Mus musculus; assay: In vivo antinociceptive activity in mice by using hot plate test after subcutaneous administration; details: sc
[2] = tested on: Mus musculus; assay: In vivo antinociceptive activity in mice by using PBQ writing test after subcutaneous administration; details: sc
[3] = tested on: Mus musculus; assay: In vivo antinociceptive activity in mice by using hot plate test after intracerebroventricular administration
[4] = organism: Mus musculus; assay: In Vitro evaluation for the potency for inhibiting the contraction of the electrically stimulated isolated mouse vas deferens

CN1CC[C@]23c4c5ccc(O)c4O[C@H]2[C@@H](O)C=C[C@H]3[C@H]1C5 [MORPHINE]
ED50 [1]: 3.2 mg/kg
ED50 [2]: 0.2 mg/kg
ED50 [3]: 0.6 µg

Cc1cc(O)cc(C)c1C[C@H](N)C(=O)N[C@H]1C(=O)NCC(=O)N[C@@H](Cc2ccccc2)C(=O)N[C@@H](C(=O)O)C(C)(C)SSC1(C)C [listing 1 of 2 here]
EC50 [4]: 0.15 nM

CC1(C)SSC(C)(C)[C@@H](NC(=O)[C@@H](N)Cc2ccc(O)cc2)C(=O)NCC(=O)N[C@@H](Cc2ccccc2)C(=O)N[C@H]1C(=O)O
EC50 [4]: 12.9 nM
ED50 [3]: 1.4 µg

Cc1cc(O)cc(C)c1C[C@H](N)C(=O)N[C@H]1C(=O)NCC(=O)N[C@@H](Cc2ccccc2)C(=O)N[C@@H](C(=O)O)C(C)(C)SSC1(C)C [listing 2 of 2 here]
ED50 [1]: 33 mg/kg
ED50 [2]: 2.6 mg/kg
ED50 [3]: 0.2 µg
